T/C data for 20 molecules are collected here from PubChem BioAssay AID256 (DTP/NCI, 2004).

Values joined by “and” are separate entries in the source; they are usually repeats but may differ in a detail not shown here. Identical values can stand only once. Toxic doses and inconclusive results are not listed.

This assay concerns CD2F1 mice, L1210 leukemia ip, survival T/C. The assay is described as follows: NCI In Vivo Anticancer Drug Screen. Data for tumor model L1210 Leukemia (intraperitoneal) in CD2F1 (CDF1) mice. To be noted: higher = longer survival. In a few lines: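 In this screen, transplantable tumors were grown in mice given either the compound or its vehicle. Results were expressed as the treated measurement relative to the control measurement.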

Setting [1] is: endpoint: mean survival time, dose: 100.0 mg/kg/injection, schedule: Q04DX002 (ip), vehicle: saline with Tween-80.
Where [2] appears, read: endpoint: mean survival time, dose: 200.0 mg/kg/injection, schedule: Q04DX002 (ip), vehicle: saline with Tween-80.
[3] abbreviates: endpoint: mean survival time, dose: 100.0 mg/kg/injection, schedule: Q04DX003 (ip), vehicle: saline with Tween-80.
[4] abbreviates: endpoint: mean survival time, dose: 200.0 mg/kg/injection, schedule: Q04DX003 (ip), vehicle: saline with Tween-80.
Where [5] appears, read: endpoint: mean survival time, dose: 400.0 mg/kg/injection, schedule: Q04DX003 (ip), vehicle: saline with Tween-80.
Setting [6] is: endpoint: mean survival time, dose: 400.0 mg/kg/injection, schedule: Q04DX002 (ip), vehicle: saline with Tween-80.
The mark [7] stands for this setting: endpoint: mean survival time, dose: 25.0 mg/kg/injection, schedule: Q01DX009 (ip), vehicle: saline with Tween-80.
Where [8] appears, read: endpoint: mean survival time, dose: 50.0 mg/kg/injection, schedule: Q01DX009 (ip), vehicle: saline with Tween-80.
[9] abbreviates: endpoint: mean survival time, dose: 100.0 mg/kg/injection, schedule: Q01DX009 (ip), vehicle: saline with Tween-80.
[10] abbreviates: endpoint: mean survival time, dose: 100.0 mg/kg/injection, schedule: Q04DX003 (ip), vehicle: saline.
[11] abbreviates: endpoint: mean survival time, dose: 200.0 mg/kg/injection, schedule: Q04DX003 (ip), vehicle: saline.
[12] abbreviates: endpoint: mean survival time, dose: 400.0 mg/kg/injection, schedule: Q04DX003 (ip), vehicle: saline.
The mark [13] stands for this setting: endpoint: mean survival time, dose: 200.0 mg/kg/injection, schedule: Q01DX009 (ip), vehicle: saline with Tween-80.
[14] abbreviates: endpoint: mean survival time, dose: 400.0 mg/kg/injection, schedule: Q01DX009 (ip), vehicle: saline with Tween-80.

As to `NC(=O)N/N=C1/CCCC2CCCCC12` (stereo not given), the T/C (endpoint: mean survival time, dose: 150.0 mg/kg/injection, schedule: Q04DX003 (ip), vehicle: saline with Tween-80) was 93 % of control and the T/C (endpoint: mean survival time, dose: 300.0 mg/kg/injection, schedule: Q04DX003 (ip), vehicle: saline with Tween-80) is 89 % of control.
For the molecule `Cc1nnn2ccccc12`, the T/C (endpoint: mean survival time, dose: 100.0 mg/kg/injection, schedule: Q01DX001 (ip), vehicle: saline) is 95 % of control.
With `CC1C(=O)OC2C1CCC1(C)C=CC(=O)C(C)C21` (stereo not given), the T/C was 108 % of control (endpoint: mean survival time, dose: 5.0 mg/kg/injection, schedule: Q04DX002 (ip), vehicle: saline with Tween-80); 100 % of control (endpoint: mean survival time, dose: 10.0 mg/kg/injection, schedule: Q04DX002 (ip), vehicle: saline with Tween-80); 108 % of control (endpoint: mean survival time, dose: 20.0 mg/kg/injection, schedule: Q04DX002 (ip), vehicle: saline with Tween-80); 116 % of control under setting [1]; 120 % of control under setting [2].
As for `Cc1c(Cl)cccc1NC(=O)CCl`, the T/C runs as follows: under setting [3], 100 % of control; under setting [4], 93 % of control; under setting [5], 90 % of control.
Turning to `COc1c(C)c2c(c(OC(C)=O)c1CC(=O)O)C(=O)OC2`, the T/C under setting [1] was 108 % of control, the T/C under setting [2] was 100 % of control and the T/C under setting [6] was 100 % of control.
Regarding `O=S(=O)(O)O.[Ga]`, the T/C runs as follows: under setting [7], 120 % of control; under setting [8], 117 % of control; under setting [9], 90 % of control.
For the molecule `Cc1ccc(N2OCCN(C(=O)c3ccc([N+](=O)[O-])cc3)C2c2ccccc2)cc1` (stereo not given), the T/C under setting [3] was 98 % of control, the T/C under setting [4] is 97 % of control and the T/C under setting [5] was 98 % of control.
In the case of `COc1cc(OC)c(/C=C/c2cc[n+](C)c3ccccc23)c(OC)c1`, the T/C reads like this: (endpoint: mean survival time, dose: 1.56 mg/kg/injection, schedule: Q01DX009 (ip), vehicle: saline) 106 % of control; (endpoint: mean survival time, dose: 1.56 mg/kg/injection, schedule: Q04DX002 (ip), vehicle: saline) 100 % of control; (endpoint: mean survival time, dose: 3.13 mg/kg/injection, schedule: Q01DX009 (ip), vehicle: saline) 109 % of control; (endpoint: mean survival time, dose: 3.13 mg/kg/injection, schedule: Q04DX002 (ip), vehicle: saline) 98 % of control; (endpoint: mean survival time, dose: 6.25 mg/kg/injection, schedule: Q04DX002 (ip), vehicle: saline) 88 % of control and 91 % of control.
For the molecule `O=C(O)CC(c1ccccc1)C(CC(=O)O)c1ccccc1.[NH-]C1CCCCC1[NH-].[Pt+2]` (stereo not given), the T/C is, setting by setting: (endpoint: median survival time, dose: 3.12 mg/kg/injection, schedule: Q04DX003 (ip), vehicle: saline with Tween-80) 107 % of control; (endpoint: median survival time, dose: 3.12 mg/kg/injection, schedule: Q04DX003 (ip), vehicle: saline) 105 % of control; (endpoint: median survival time, dose: 6.25 mg/kg/injection, schedule: Q04DX003 (ip), vehicle: saline with Tween-80) 111 % of control; (endpoint: median survival time, dose: 6.25 mg/kg/injection, schedule: Q04DX003 (ip), vehicle: saline) 102 % of control; (endpoint: median survival time, dose: 12.5 mg/kg/injection, schedule: Q04DX003 (ip), vehicle: saline with Tween-80) 102 % of control; (endpoint: median survival time, dose: 12.5 mg/kg/injection, schedule: Q04DX003 (ip), vehicle: saline) 103 % of control. The T/C reads like this: (endpoint: median survival time, dose: 25.0 mg/kg/injection, schedule: Q04DX003 (ip), vehicle: saline with Tween-80) 111 % of control; (endpoint: median survival time, dose: 25.0 mg/kg/injection, schedule: Q04DX003 (ip), vehicle: saline) 110 % of control; (endpoint: median survival time, dose: 50.0 mg/kg/injection, schedule: Q04DX003 (ip), vehicle: saline with Tween-80) 123 % of control; (endpoint: median survival time, dose: 50.0 mg/kg/injection, schedule: Q04DX003 (ip), vehicle: saline) 110 % of control; (endpoint: median survival time, dose: 100.0 mg/kg/injection, schedule: Q04DX003 (ip), vehicle: saline) 121 % of control.
`Cc1cccc(C(=O)NN)c1`: the T/C (endpoint: mean survival time, dose: 75.0 mg/kg/injection, schedule: Q01DX001 (ip), vehicle: saline) was 106 % of control.
Consider `N#CCC(C#N)N1CCOCC1` (stereo not given), for which the T/C reads like this: under setting [7], 98 % of control; under setting [8], 102 % of control; under setting [9], 102 % of control.
On to `CC([NH-])CC(C)[NH-].[Br][Pt+2][Br]` (stereo not given), for which the T/C by setting is: (endpoint: mean survival time, dose: 3.12 mg/kg/injection, schedule: Q04DX003 (ip), vehicle: saline with Tween-80) 120 % of control and 124 % of control; (endpoint: mean survival time, dose: 12.5 mg/kg/injection, schedule: Q04DX003 (ip), vehicle: saline with Tween-80) 150 % of control.
Turning to `CC(=O)OCC1OC2OC(C)(C)OC2C2OC(C)(C)OC12` (stereo not given), the T/C by setting is: under setting [3], 104 % of control; under setting [4], 101 % of control; under setting [5], 106 % of control.
Turning to `ClCC[N+]12CC[N+](CCCl)(CC1)C2`, the T/C is 95 % of control and 106 % of control and 109 % of control (endpoint: mean survival time, dose: 6.25 mg/kg/injection, schedule: Q01DX009 (ip), vehicle: water); 106 % of control [middle of 4 runs] (endpoint: mean survival time, dose: 12.5 mg/kg/injection, schedule: Q01DX009 (ip), vehicle: saline); 117 % of control and 104 % of control and 108 % of control (endpoint: mean survival time, dose: 12.5 mg/kg/injection, schedule: Q01DX009 (ip), vehicle: water); 110 % of control [middle of 4 runs] (endpoint: mean survival time, dose: 25.0 mg/kg/injection, schedule: Q01DX009 (ip), vehicle: saline); 115 % of control and 106 % of control and 109 % of control (endpoint: mean survival time, dose: 25.0 mg/kg/injection, schedule: Q01DX009 (ip), vehicle: water); 117 % of control and 102 % of control and 109 % of control (endpoint: mean survival time, dose: 50.0 mg/kg/injection, schedule: Q01DX009 (ip), vehicle: saline). The T/C is 113 % of control and 119 % of control and 120 % of control (endpoint: mean survival time, dose: 50.0 mg/kg/injection, schedule: Q01DX009 (ip), vehicle: water); 102 % of control (endpoint: mean survival time, dose: 50.0 mg/kg/injection, schedule: Q04DX003 (ip), vehicle: saline); 154 % of control (endpoint: mean survival time, dose: 66.0 mg/kg/injection, schedule: Q01DX009 (ip), vehicle: saline); 116 % of control and 94 % of control (endpoint: mean survival time, dose: 100.0 mg/kg/injection, schedule: Q01DX009 (ip), vehicle: saline); 111 % of control (endpoint: mean survival time, dose: 100.0 mg/kg/injection, schedule: Q01DX009 (ip), vehicle: water); 102 % of control under setting [10]. In addition, the T/C (endpoint: mean survival time, dose: 150.0 mg/kg/injection, schedule: Q01DX009 (ip), vehicle: saline) was 190 % of control; the T/C (endpoint: mean survival time, dose: 150.0 mg/kg/injection, schedule: Q04DX003 (ip), vehicle: saline) is 118 % of control; the T/C (endpoint: mean survival time, dose: 200.0 mg/kg/injection, schedule: Q01DX009 (ip), vehicle: saline) was 108 % of control [middle of 5 runs]; the T/C under setting [11] was 123 % of control; the T/C (endpoint: mean survival time, dose: 300.0 mg/kg/injection, schedule: Q04DX003 (ip), vehicle: saline) is 119 % of control; the T/C (endpoint: mean survival time, dose: 400.0 mg/kg/injection, schedule: Q01DX009 (ip), vehicle: saline) is 121 % of control and 105 % of control. In addition, the T/C under setting [12] is 178 % of control.
Take `CC(=O)Nc1nnn(C)n1`: the T/C is, setting by setting: under setting [10], 103 % of control; under setting [11], 100 % of control; under setting [12], 101 % of control.
`O=c1[nH]cnc2snc(Cl)c12`: the T/C reads like this: (endpoint: mean survival time, dose: 100.0 mg/kg/injection, schedule: Q01DX001 (ip), vehicle: saline with Tween-80) 101 % of control; under setting [1], 92 % of control; (endpoint: mean survival time, dose: 200.0 mg/kg/injection, schedule: Q01DX001 (ip), vehicle: saline with Tween-80) 101 % of control; under setting [2], 92 % of control; (endpoint: mean survival time, dose: 400.0 mg/kg/injection, schedule: Q01DX001 (ip), vehicle: saline with Tween-80) 100 % of control; under setting [6], 87 % of control.
In the case of `Cc1ccc(S(=O)(=O)N=P(c2ccccc2)(c2ccccc2)c2ccccc2)cc1`, the T/C was 93 % of control and 94 % of control under setting [9]; 88 % of control under setting [13]; 91 % of control and 93 % of control under setting [14].
As for `O=C(CNC(=O)Nc1ccc(Cl)c(Cl)c1)NNC(=O)Nc1ccc(F)c(Cl)c1`, the T/C reads like this: under setting [9], 96 % of control; under setting [13], 95 % of control; under setting [14], 91 % of control.
As for `CC(C)(CCC(C)(C)c1ccccc1)c1ccccc1`, the T/C runs as follows: under setting [8], 96 % of control; under setting [9], 96 % of control; under setting [13], 96 % of control.
Take `c1ccc2c(c1)oc1ccccc12`: the T/C runs as follows: under setting [3], 98 % of control; under setting [4], 92 % of control; under setting [5], 92 % of control.
